From patent publication US20220388964A1 (HiberCell, Inc., priority 2019, published 2022)

Each compound was assayed against T1, GCN2 (Homo sapiens, UniProt Q9P2K8) (assay: TR-FRET biochemical assay for inhibition of GCN2 (Example 106, for Example 1-4BB)). Conditions: Table 8.
T1 sequence (Q9P2K8 whole entry): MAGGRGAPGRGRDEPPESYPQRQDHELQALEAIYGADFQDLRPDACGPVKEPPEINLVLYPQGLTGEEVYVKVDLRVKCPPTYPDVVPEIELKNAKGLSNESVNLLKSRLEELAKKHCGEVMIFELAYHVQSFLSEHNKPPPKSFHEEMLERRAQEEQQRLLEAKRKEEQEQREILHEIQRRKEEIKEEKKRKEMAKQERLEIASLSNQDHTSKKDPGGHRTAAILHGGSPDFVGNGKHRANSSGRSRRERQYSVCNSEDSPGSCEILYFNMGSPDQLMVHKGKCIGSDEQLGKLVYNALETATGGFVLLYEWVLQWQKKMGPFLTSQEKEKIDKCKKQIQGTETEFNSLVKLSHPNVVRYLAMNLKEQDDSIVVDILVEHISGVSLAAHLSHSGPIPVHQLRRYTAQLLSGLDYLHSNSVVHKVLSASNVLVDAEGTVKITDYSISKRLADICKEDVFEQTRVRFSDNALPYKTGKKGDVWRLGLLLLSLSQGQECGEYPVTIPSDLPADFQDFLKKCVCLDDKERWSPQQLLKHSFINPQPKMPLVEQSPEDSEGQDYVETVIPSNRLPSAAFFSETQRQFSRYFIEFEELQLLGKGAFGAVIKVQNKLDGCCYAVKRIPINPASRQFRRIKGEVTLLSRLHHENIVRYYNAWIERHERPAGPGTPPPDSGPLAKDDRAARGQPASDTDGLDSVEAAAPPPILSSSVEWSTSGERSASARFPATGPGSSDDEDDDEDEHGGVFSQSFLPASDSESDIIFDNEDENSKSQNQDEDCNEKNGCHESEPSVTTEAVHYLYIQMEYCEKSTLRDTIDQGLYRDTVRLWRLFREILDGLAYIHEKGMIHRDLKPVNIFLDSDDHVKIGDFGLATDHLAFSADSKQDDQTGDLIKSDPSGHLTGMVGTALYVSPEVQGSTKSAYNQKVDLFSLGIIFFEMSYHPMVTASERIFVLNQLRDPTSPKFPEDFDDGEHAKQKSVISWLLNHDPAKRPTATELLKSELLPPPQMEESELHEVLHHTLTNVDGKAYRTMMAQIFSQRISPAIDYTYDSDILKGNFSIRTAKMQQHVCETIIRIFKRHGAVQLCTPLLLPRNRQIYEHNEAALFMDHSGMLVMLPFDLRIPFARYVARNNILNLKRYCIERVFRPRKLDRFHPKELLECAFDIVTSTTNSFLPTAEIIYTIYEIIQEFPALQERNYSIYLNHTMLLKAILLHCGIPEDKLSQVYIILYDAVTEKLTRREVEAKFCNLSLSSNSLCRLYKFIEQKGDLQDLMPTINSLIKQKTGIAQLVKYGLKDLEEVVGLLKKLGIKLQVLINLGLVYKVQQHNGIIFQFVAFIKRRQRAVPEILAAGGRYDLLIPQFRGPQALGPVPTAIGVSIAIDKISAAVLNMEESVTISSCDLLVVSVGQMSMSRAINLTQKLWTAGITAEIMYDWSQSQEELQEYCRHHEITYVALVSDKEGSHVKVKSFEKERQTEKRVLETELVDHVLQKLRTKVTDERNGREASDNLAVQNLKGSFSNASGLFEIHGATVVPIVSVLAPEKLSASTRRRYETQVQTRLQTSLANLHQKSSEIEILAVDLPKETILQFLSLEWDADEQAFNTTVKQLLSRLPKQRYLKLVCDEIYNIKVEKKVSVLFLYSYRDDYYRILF

| IC50 [µM] | SMILES |
| --- | --- |
| 0.5 to 2.5 | O=S(=O)(Nc1ccc(F)c(-c2ccc3c(-c4ncc[nH]4)n[nH]c3c2F)c1F)c1cccc(Cl)c1 [Example 2CN, 3-chloro-N-(2,4-difluoro-3-(7-fluoro-3-(1H-imidazol-2-yl)-1H-indazol-6-yl)phenyl)ben-zenesulfonamide] |
| < 0.5 | O=S(=O)(Nc1ccc(F)c(-c2ccc3c(-c4ncc[nH]4)n[nH]c3c2F)c1F)c1ccc(Cl)cc1Cl [Example 2BN, 2,4-dichloro-N-(2,4-difluoro-3-(7-fluoro-3-(1H-imidazol-2-yl)-1H-indazol-6-yl)phenyl)-benzenesulfonamide] |
| 0.5 to 2.5 | O=S(=O)(Nc1ccc(F)c(-c2ccc3c(-c4ncc[nH]4)n[nH]c3c2F)c1F)c1ccccc1 [Example 2BV, N-(2,4-difluoro-3-(7-fluoro-3-(1H-imidazol-2-yl)-1H-indazol-6-yl)phenyl)benzene-sulfonamide] |
| 2.5 to 10 | Cn1ncc(S(=O)(=O)Nc2ccc(F)c(-c3ccc4c(-c5ncc[nH]5)n[nH]c4c3F)c2F)n1 [Example 2Y, N-(2,4-difluoro-3-(7-fluoro-3-(1H-imidazol-2-yl)-1H-indazol-6-yl)phenyl)-2-methyl-2H-l,2,3-triazole-4-sulfonamide] |
| < 0.5 | O=S(=O)(Nc1ccc(F)c(-c2ccc3c(-c4ncc[nH]4)n[nH]c3c2F)c1F)c1ccccc1F [Example 2BT, N-(2,4-difluoro-3-(7-fluoro-3-(1H-imidazol-2-yl)-1H-indazol-6-yl)phenyl)-2-fluorobenzenesulfonamide] |
| 0.5 to 2.5 | COc1ccc(S(=O)(=O)Nc2ccc(F)c(-c3ccc4c(-c5ncc[nH]5)n[nH]c4c3F)c2F)cc1 [Example 2B, N-(2,4-difluoro-3-(7-fluoro-3-(1H-imidazol-2-yl)-1H-indazol-6-yl)phenyl)-4-methoxybenzene-sulfonamide] |

Same assay, conditions: Table 9

| IC50 [µM] | SMILES |
| --- | --- |
| < 0.5 | CC1CCc2c1cc(F)cc2S(=O)(=O)Nc1ccc(F)c(-c2ccc3c(-c4ncc[nH]4)n[nH]c3c2F)c1F (stereo not shown) [Example 4AQ] |
| < 0.5 | COc1ncc(F)cc1S(=O)(=O)Nc1ccc(F)c(-c2ccc3c(C(=O)Nc4cnn(C)c4)n[nH]c3c2F)c1F [Example 3Z, 6-(2,6-difluoro-3-((5-fluoro-2-methoxypyridine)-3-sulfonamido)phenyl)-7-fluoro-1H-(1-methyl-1H-pyrazol-4-yl)-1H-indazole-3-carboxamide] |
| 2.5 to 10 | COc1ncc(CO)cc1S(=O)(=O)Nc1ccc(F)c(-c2ccc3c(C(N)=O)n[nH]c3c2F)c1F [Example 3DE, 6-(2,6-difluoro-3-((5-(hydroxylmethyl)-2-methoxy-pyridine)-3-sulfonamido)-phenyl)-7-fluoro-1H-indazole-3-carboxamide] |
| < 0.5 | Cc1nc(C)c(S(=O)(=O)Nc2cc(F)cc(-c3ccc4c(-c5ncc[nH]5)n[nH]c4c3F)c2F)s1 [Example 3BY, N-(2,5-difluoro-3-(7-fluoro-3-(1H-imidazol-2-yl)-1H-indazol-6-yl)phenyl)-2,4-dimethylthiazole-5-sulfonamide] |
| 0.5 to 2.5 | COc1ncc(F)cc1S(=O)(=O)Nc1nccc(-c2ccc3c(C(N)=O)n[nH]c3c2F)c1F [Example 3Q, 6-(3-fluoro-2-((5-fluoro-2-methoxypyridine)-3-sulfonamido)pyridin-4-yl)-7-fluoro-1H-indazole-3-carboxamide] |
| < 0.5 | COc1ncc(Cl)cc1S(=O)(=O)Nc1cccc(-c2cc3[nH]nc(C(=O)NCCCO)c3cn2)c1F [Example 3BC, 6-(3-((5-chloro-2-methoxy-pyridine)-3-sulfonamido)-2-fluorophenyl)-N-(3-hydroxy-propyl)-1H-pyrazolo[4,3-c]pyridine-3-carboxamide] |
| < 0.5 | COc1ncc(F)cc1S(=O)(=O)Nc1ccc(F)c(-c2ccc3c(C(=O)NCCC(N)=O)n[nH]c3c2F)c1F [Example 3AL, N-(3-amino-3-oxopropyl)-6-(2,6-difluoro-3-((5-fluoro-2-methoxypyridine)-3-sulfonamido)phenyl)-7-fluoro-1H-indazole-3-carboxamide] |
| 0.5 to 2.5 | COc1ncc(F)cc1S(=O)(=O)Nc1ccc(F)c(-c2ccc3c(C(=O)N[C@H]4CCN(C)C4)n[nH]c3c2F)c1F [Example 3AC, 6-(3-((5-fluoro-2-methoxy-pyridine)-3-sulfonamido)-2,6-difluorophenyl)-7-fluoro-N-((S)-1-methylpyrrolidin-3-yl)-1H-indazole-3-carboxamide] |
| < 0.5 | COc1ncc(F)cc1S(=O)(=O)Nc1ccc(F)c(-c2ccc3c(-c4nnc(C)[nH]4)n[nH]c3c2F)c1F [Example 3CK, N-(2,4-difluoro-3-(7-fluoro-3-(5-methyl-4H-1,2,4-triazol-3-yl)-1H-indazol-6-yl)phenyl)-5-fluoro-2-methoxypyridine-3-sulfonamide] |
| 0.5 to 2.5 | COc1ncc(F)cc1S(=O)(=O)Nc1cccc(-c2ccc3c(C(=O)NCC[C@@H](O)CO)n[nH]c3c2F)c1F [Example 3BH, 6-(2-fluoro-3-((5-fluoro-2-methoxypyridine)-3-sulfonamido)phenyl)-N-((R)-3,4-dihydroxybutyl)-7-fluoro-1H-indazole-3-carboxamide] |
| 0.5 to 2.5 | COc1ncc(F)cc1S(=O)(=O)Nc1ccc(F)c(-c2ccc3c(C(=O)NC4CCNCC4)n[nH]c3c2F)c1F [Example 3AU, 6-(2,6-difluoro-3-((5-fluoro-2-methoxypyridine)-3-sulfonamido)phenyl)-7-fluoro-N-(piperidin-4-yl)-1H-indazole-3-carboxamide] |
| < 0.5 | Cc1ccc(S(=O)(=O)Nc2ccc(F)c(-c3ccc4c(C(=O)Nc5cn[nH]c5)n[nH]c4c3F)c2F)c(C)n1 [Example 3DI, 6-(3-((2,6-dimethylpyridine)-3-sulfonamido)-2,6-difluoro-phenyl)-7-fluoro-N-(1H-pyrazol-4-yl)-1H-indazole-3-carboxamide] |
| < 0.5 | Cc1ccc(F)cc1S(=O)(=O)Nc1ccc(F)c(-c2ncc3c(-c4ncc[nH]4)n[nH]c3c2F)c1F [Example 38, N-[2,4-difluoro-3-[7-fluoro-3-(1H-imidazol-2-yl)-1H-pyrazolo[4,3-c]pyridin-6-yl]phenyl]-5-fluoro-2-methyl-benzenesulfonamide] |
| < 0.5 | COc1ncc(F)cc1S(=O)(=O)Nc1ccc(F)c(-c2ccc3c(C(=O)NCC[C@H](O)CO)n[nH]c3c2F)c1F [Example 3BE, 6-(2,6-difluoro-3-((5-fluoro-2-methoxypyridine)-3-sulfonamido)phenyl)-N-((S)-3,4-dihydroxybutyl)-7-fluoro-1H-indazole-3-carboxamide] |

Each compound was assayed against T1, GCN2 (assay: TR-FRET assay for inhibition of GCN2 (Example 107, for Examples 40-72)). Conditions: not given.

| IC50 [µM] | SMILES |
| --- | --- |
| < 0.5 | COc1ncc(Cl)cc1S(=O)(=O)Nc1ccc(F)c(-c2ccc3c(C(=O)NC(C)CCO)n[nH]c3c2F)c1F (stereo not shown) [Example 60, 6-[3-(5-chloro-2-methoxypyridine-3-sulfonamido)-2,6-difluorophenyl]-7-fluoro-N-(4-hydroxybutan-2-yl)-1H-indazole-3-carboxamide] |
| 0.5 to 2.5 | CNC(=O)c1n[nH]c2c(F)c(-c3c(F)ccc(NS(=O)(=O)c4cccc5c4ncn5C)c3F)ccc12 [Example 69, 6-[2,6-Difluoro-3-(1-methyl-1,3-benzodiazole-4-sulfonamido)phenyl]-7-fluoro-N-methyl-1H-indazole-3-carboxamide] |
| < 0.5 | COc1ncc(Cl)cc1S(=O)(=O)Nc1ccc(F)c(-c2ccc3c(C(=O)NCC(C)C)n[nH]c3c2F)c1F [Example 48, 6-[3-(5-Chloro-2-methoxypyridine-3-sulfonamido)-2,6-difluorophenyl]-7-fluoro-N-(2-methylpropyl)-1H-indazole-3-carboxamide] |
| < 0.5 | CNC(=O)c1n[nH]c2c(F)c(-c3c(F)ccc(NS(=O)(=O)c4cc(Cl)cnc4OC)c3F)ncc12 [Example 67, 6-[3-(5-Chloro-2-methoxypyridine-3-sulfonamido)-2,6-difluorophenyl]-7-fluoro-N-methyl-1H-pyrazolo[4,3-c]pyridine-3-carboxamide] |
| < 0.5 | COc1ncc(Cl)cc1S(=O)(=O)Nc1ccc(F)c(-c2ccc3c(C(=O)NC4CCCOC4)n[nH]c3c2F)c1F (stereo not shown) [Example 55, 6-[3-(5-Chloro-2-methoxypyridine-3-sulfonamido)-2,6-difluorophenyl]-7-fluoro-N-(oxan-3-yl)-1H-indazole-3-carboxamide] |
| < 0.5 | COc1ncc(Cl)cc1S(=O)(=O)Nc1ccc(F)c(-c2ccc3c(C(=O)NC4CCN(C(C)=O)C4)n[nH]c3c2F)c1F (stereo not shown) [Example 51, N-(1-acetylpyrrolidin-3-yl)-6-[3-(5-chloro-2-methoxypyridine-3-sulfonamido)-2,6-difluorophenyl]-7-fluoro-1H-indazole-3-carboxamide] |
| < 0.5 | COc1ncc(Cl)cc1S(=O)(=O)Nc1ccc(F)c(-c2ccc3c(-c4ncco4)n[nH]c3c2F)c1F [Example 64, 5-chloro-N-[2,4-difluoro-3-[7-fluoro-3-(1,3-oxazol-2-yl)-1H-indazol-6-yl]phenyl]-2-methoxypyridine-3-sulfonamide] |
| < 0.5 | COc1ncc(Cl)cc1S(=O)(=O)Nc1ccc(F)c(-c2ccc3c(C(=O)NC4CCC(=O)N(C)C4)n[nH]c3c2F)c1F (stereo not shown) [Example 50, 6-[3-(5-Chloro-2-methoxypyridine-3-sulfonamido)-2,6-difluorophenyl]-7-fluoro-N-(1-methyl-6-oxopiperidin-3-yl)-1H-indazole-3-carboxamide] |
| < 0.5 | COc1ncc(Cl)cc1S(=O)(=O)Nc1ccc(F)c(-c2ccc3c(C(=O)NCC(C)O)n[nH]c3c2F)c1F (stereo not shown) [Example 52, 6-[3-(5-Chloro-2-methoxypyridine-3-sulfonamido)-2,6-difluorophenyl]-7-fluoro-N-(2-hydroxypropyl)-1H-indazole-3-carboxamide] |
| < 0.5 | COc1ncc(Cl)cc1S(=O)(=O)Nc1ccc(F)c(-c2ccc3c(C(=O)NC(C)CO)n[nH]c3c2F)c1F (stereo not shown) [Example 53, 6-[3-(5-Chloro-2-methoxypyridine-3-sulfonamido)-2,6-difluorophenyl]-7-fluoro-N-(1-hydroxypropan-2-yl)-1H-indazole-3-carboxamide] |
| < 0.5 | CNC(=O)c1n[nH]c2c(F)c(-c3c(F)ccc(NS(=O)(=O)c4cc(F)cnc4C)c3F)ccc12 [Example 65, 6-[2,6-difluoro-3-(5-fluoro-2-methylpyridine-3-sulfonamido)phenyl]-7-fluoro-N-methyl-1H-indazole-3-carboxamide] |
